The values that follow come from PubChem BioAssay AID330 (DTP/NCI, 2004).

This test concerns P388 leukemia ip, CD2F1 mice, survival T/C. The test is described as follows: NCI In Vivo Anticancer Drug Screen. Data for tumor model P388 Leukemia (intraperitoneal) in CD2F1 (CDF1) mice. As to conditions: endpoint: median survival time, higher = longer survival. Summed up: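 Mice carrying the transplanted tumor received test compound or vehicle. Survival was recorded in each group, and the value is the treated-group measurement divided by that of the vehicle-treated control group.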

Setting [1] is: dose: 100.0 mg/kg/injection, schedule: Q01DX009 (ip), vehicle: saline with Tween-80.
Setting [2] is: dose: 50.0 mg/kg/injection, schedule: Q01DX005 (ip), vehicle: Klucel (hydroxypropylcellulose) (HPC).
The mark [3] stands for this setting: dose: 100.0 mg/kg/injection, schedule: Q01DX005 (ip), vehicle: Klucel (hydroxypropylcellulose) (HPC).
[4] abbreviates: dose: 200.0 mg/kg/injection, schedule: Q01DX005 (ip), vehicle: Klucel (hydroxypropylcellulose) (HPC).
Setting [5] is: dose: 50.0 mg/kg/injection, schedule: Q01DX005 (ip), vehicle: saline with Tween-80.
The mark [6] stands for this setting: dose: 100.0 mg/kg/injection, schedule: Q01DX005 (ip), vehicle: saline with Tween-80.
Where [7] appears, read: dose: 200.0 mg/kg/injection, schedule: Q01DX005 (ip), vehicle: saline with Tween-80.

Several values for one entry are separate records, joined by “and”; a condition that tells them apart may be missing. Identical values can stand only once. Toxic doses and inconclusive results are not listed.

For `COc1ccc(CCN2COc3ccc4ccc(=O)oc4c3C2)cc1OC`, the T/C was 100 % of control under setting [1]; 110 % of control (dose: 100.0 mg/kg/injection, schedule: Q04DX003 (ip), vehicle: saline with Tween-80); 115 % of control (dose: 200.0 mg/kg/injection, schedule: Q04DX003 (ip), vehicle: saline with Tween-80); 100 % of control (dose: 400.0 mg/kg/injection, schedule: Q01DX009 (ip), vehicle: saline with Tween-80); 110 % of control (dose: 400.0 mg/kg/injection, schedule: Q04DX003 (ip), vehicle: saline with Tween-80).
On to `CCN(CC)CCCC(C)Nc1ccc2ccc(Cl)cc2n1` (stereo not drawn), for which the T/C runs as follows: (dose: 50.0 mg/kg/injection, schedule: Q01DX005 (ip), vehicle: saline + Tween-80 + alcohol) 101 % of control; (dose: 100.0 mg/kg/injection, schedule: Q01DX005 (ip), vehicle: saline + Tween-80 + alcohol) 101 % of control; (dose: 200.0 mg/kg/injection, schedule: Q01DX005 (ip), vehicle: saline + Tween-80 + alcohol) 100 % of control.
Regarding `O=c1ccnc(Nc2ccc[nH]c2=S)[nH]1`, the T/C reads like this: under setting [2], 100 % of control; (dose: 60.0 mg/kg/injection, schedule: Q01DX005 (ip), vehicle: saline with Tween-80) 105 % of control; under setting [3], 99 % of control; (dose: 120.0 mg/kg/injection, schedule: Q01DX005 (ip), vehicle: saline with Tween-80) 105 % of control; under setting [4], 93 % of control; (dose: 240.0 mg/kg/injection, schedule: Q01DX005 (ip), vehicle: saline with Tween-80) 100 % of control.
On to `CCOc1c(N=Nc2ccc(Br)cc2)c(C)nn1C(=S)SC`, for which the T/C is, setting by setting: (dose: 60.0 mg/kg/injection, schedule: Q01DX005 (ip), vehicle: Klucel (hydroxypropylcellulose) (HPC)) 93 % of control; (dose: 120.0 mg/kg/injection, schedule: Q01DX005 (ip), vehicle: Klucel (hydroxypropylcellulose) (HPC)) 92 % of control; (dose: 240.0 mg/kg/injection, schedule: Q01DX005 (ip), vehicle: Klucel (hydroxypropylcellulose) (HPC)) 98 % of control.
For `N=C(N)c1nc2ccccc2s1`, the T/C runs as follows: (dose: 12.5 mg/kg/injection, schedule: Q01DX009 (ip), vehicle: other) 102 % of control; (dose: 25.0 mg/kg/injection, schedule: Q01DX009 (ip), vehicle: other) 104 % of control; (dose: 50.0 mg/kg/injection, schedule: Q01DX009 (ip), vehicle: other) 93 % of control.
Turning to `CC1CC1(C1C=CCCC1)C1C=CCCC1` (stereo not drawn), the T/C under setting [5] is 100 % of control, the T/C under setting [6] was 100 % of control and the T/C under setting [7] is 108 % of control.
Turning to `COc1ccc(S(=O)(=O)N/N=C\c2cc(I)cc(I)c2O)cc1`, the T/C reads like this: under setting [5], 101 % of control; under setting [6], 102 % of control; under setting [7], 100 % of control.
As for `c1ccc(Cc2cc(-c3ccccc3)[nH]c2-c2ccccc2)cc1`, the T/C was 100 % of control (dose: 50.0 mg/kg/injection, schedule: Q01DX009 (ip), vehicle: saline); 104 % of control (dose: 100.0 mg/kg/injection, schedule: Q01DX009 (ip), vehicle: saline); 90 % of control (dose: 200.0 mg/kg/injection, schedule: Q01DX009 (ip), vehicle: saline).
With `CCCn1c(Cl)c(/C=N\Nc2ccc([N+](=O)[O-])cc2)c2ccccc21`, the T/C was 103 % of control (dose: 100.0 mg/kg/injection, schedule: Q01DX001 (ip), vehicle: saline with Tween-80); 95 % of control (dose: 200.0 mg/kg/injection, schedule: Q01DX001 (ip), vehicle: saline with Tween-80); 95 % of control (dose: 400.0 mg/kg/injection, schedule: Q01DX001 (ip), vehicle: saline with Tween-80).
In the case of `COc1ccc([I+]c2cccc(Cl)c2)cc1Cl`, the T/C is 106 % of control (dose: 0.09 mg/kg/injection, schedule: Q01DX009 (ip), vehicle: saline with Tween-80); 112 % of control (dose: 0.18 mg/kg/injection, schedule: Q01DX009 (ip), vehicle: saline with Tween-80); 102 % of control (dose: 0.37 mg/kg/injection, schedule: Q01DX009 (ip), vehicle: saline with Tween-80); 122 % of control (dose: 0.75 mg/kg/injection, schedule: Q01DX009 (ip), vehicle: saline with Tween-80); 150 % of control and 159 % of control (dose: 12.5 mg/kg/injection, schedule: Q01DX009 (ip), vehicle: saline with Tween-80); 106 % of control and 112 % of control (dose: 25.0 mg/kg/injection, schedule: Q01DX009 (ip), vehicle: saline with Tween-80).
With `COSOC`, the T/C (dose: 7.5 mg/kg/injection, schedule: Q04DX003 (ip), vehicle: Klucel (hydroxypropylcellulose) (HPC)) is 105 % of control; the T/C (dose: 15.0 mg/kg/injection, schedule: Q04DX003 (ip), vehicle: Klucel (hydroxypropylcellulose) (HPC)) was 104 % of control; the T/C (dose: 30.0 mg/kg/injection, schedule: Q04DX003 (ip), vehicle: Klucel (hydroxypropylcellulose) (HPC)) was 98 % of control.
With `O=C(Nc1cccc(NC(=O)c2nn[nH]n2)n1)c1nn[nH]n1`, the T/C is 105 % of control under setting [2], 105 % of control under setting [3] and 99 % of control under setting [4].
Turning to `COC(=O)C[C@H]1[C@]2(C)C[C@@]34OC5(C)O[C@]6([C@@H]7CC(=O)OC(c8ccoc8)[C@]7(C)[C@@H](OC(C)=O)C[C@]6(O5)[C@@]13C)[C@H](OC(=O)C(C)C)[C@]4(O)[C@H]2OC(=O)C(C)C` (stereo partly drawn), the T/C by setting is: (dose: 0.37 mg/kg/injection, schedule: Q01DX009 (ip), vehicle: Klucel (hydroxypropylcellulose) (HPC)) 95 % of control; (dose: 0.75 mg/kg/injection, schedule: Q01DX009 (ip), vehicle: Klucel (hydroxypropylcellulose) (HPC)) 94 % of control; (dose: 1.5 mg/kg/injection, schedule: Q01DX009 (ip), vehicle: Klucel (hydroxypropylcellulose) (HPC)) 98 % of control; (dose: 3.0 mg/kg/injection, schedule: Q01DX009 (ip), vehicle: Klucel (hydroxypropylcellulose) (HPC)) 93 % of control.
Take `O=C(Nc1ccc(NC2=NCCN2)cc1)c1ccc(C(=O)Nc2ccc(NC3=NCCN3)cc2)c([N+](=O)[O-])c1`: the T/C reads like this: (dose: 1.56 mg/kg/injection, schedule: Q01DX005 (ip), vehicle: Klucel (hydroxypropylcellulose) (HPC)) 116 % of control; (dose: 6.25 mg/kg/injection, schedule: Q01DX005 (ip), vehicle: Klucel (hydroxypropylcellulose) (HPC)) 158 % of control; (dose: 12.5 mg/kg/injection, schedule: Q01DX005 (ip), vehicle: Klucel (hydroxypropylcellulose) (HPC)) 158 % of control.
`O=C1CCCC/C1=C\N(c1ccccc1)c1ccccc1`: the T/C runs as follows: (dose: 50.0 mg/kg/injection, schedule: Q01DX009 (ip), vehicle: saline with Tween-80) 106 % of control; under setting [1], 98 % of control; (dose: 200.0 mg/kg/injection, schedule: Q01DX009 (ip), vehicle: saline with Tween-80) 95 % of control.
As for `CCOS(=O)(=O)CS(C)(=O)=O`, the T/C is, setting by setting: (dose: 25.0 mg/kg/injection, schedule: Q01DX005 (ip), vehicle: saline) 118 % of control; (dose: 50.0 mg/kg/injection, schedule: Q01DX005 (ip), vehicle: saline) 118 % of control; (dose: 100.0 mg/kg/injection, schedule: Q01DX005 (ip), vehicle: saline) 160 % of control and 170 % of control; (dose: 150.0 mg/kg/injection, schedule: Q01DX005 (ip), vehicle: saline) 104 % of control.
